Results from US11583528B2, “FFA1 (GPR40) as a therapeutic target for neural angiogenesis diseases or disorders” (Children's Medical Center Corporation, priority 2016, dated 2023).
Entries after “also recorded” stand apart in the source; their conditions may differ.

Tests used:
photoreceptors (661W) [1] = assay: Oxygen consumption and extracellular acidification rates of photoreceptor (661W) cells (Seahorse XFe96); assay type: cell-based
Experimental: (§1) All oxygen consumption rates were measured using a Seahorse XFe96 Flux Analyzer®. Whole retinas were isolated and 1 mm punch biopsies were loaded into the 96 well plate. Retinal punches were incubated in assay media (DMEM 5030 media supplemented with 12 mM glucose, 10 mM HEPES and 26 mM NaHCO3) to measure oxygen consumption rates (OCR) and extracellular acidification rates (ECAR). Photoreceptor (661W) cells, were incubated in their assay media (DMEM 5030, 12 mM glucose, 10 mM HEPES) one hour prior to measurements. Fatty acid oxidation rates were determined by treating tissues or cells with Etomoxir (40 μM; Sigma) 40 min prior to analysis and then providing BSA (control) or BSA/Palmitate conjugate (Seahorse). Glucose oxidation rates were measured after injection of 2-deoxyglucose (2-DG, 100 mM; Sigma) or media control during data acquisition. To determine the maximal fatty acid or glucose oxidative capacity, the nonmitochondrial respiration (rate after injection of 2 μM Rotenone and 2 μM Antimycin A) was subtracted from the oxygen consumption rate after injection of 0.5 μM carbonyl cyanide-ptrifluoromethoxyphenylhydrazone (FCCP).

Vldlr−/− mice = assay: Quantification of RAP-like retinal vascular lesions in Vldlr−/− mice; assay type: in vivo, mouse; conditions: Vldlr−/− pups treated from P8 to P15, lesions quantified at P16, versus vehicle control
Source text: (§2) All studies adhered to the NIH guide for the Care and Use of laboratory animals, the Association for Research in Vision and Ophthalmology (ARVO) Statement for the Use of Animals in Ophthalmic and Vision Research and were approved by the Institutional Animal Care and Use Committee at Boston Children's Hospital. Vldlr knockout mice (Vldlr^−/−; Jackson Lab Stock: 002529) were crossed with wild type C57Bl/6 mice to obtain heterozygous breeders for littermate controlled experiments. Vldlr^−/− mice were also crossed with Ffar1 knockout mice (Ffar1^−/−)^1 to ultimately obtain Vldlr^−/−/Ffar1^−/+ heterozygous breeders and double knockout mice (Vldlr^−/−/Ffar1^−/−). Pups weighing less than 5 grams or more than 7 grams at postnatal day (P)16 were excluded (Stahl, A., et al. Am J Pathol 177, 2715-2723 (2010)). Littermate Vldlr^−/− pups were treated from P8 to P15 with WY164363 (50 mg/kg once daily, intraperitoneal; Sigma), GW9508 (14 μM, once daily intraperitoneal; Cayman), TAK-875 (15 mg/kg twice daily, gavage; Selleckchem), medium chain triglyceride oil (MCT, 20 μL once daily gavage; Nestle) or corresponding vehicle and sacrificed at P16 to quantify retinal vascular lesions. Mice pups of both genders were used.
For quantification of outer retina vascular lesions, reminiscent of retinal angiomatous proliferation (RAP) or macular telangiectasia (MacTel), mice were euthanized with a mixture of xylazine and ketamine and eyes were enucleated and fixed in 4% paraformaldehyde for 1 h at room temperature. […] For quantification of retinal lesions 20 images of each whole-mounted retina were obtained at 10× magnification on a Zeiss AxioObserver.Z1 microscope and merged to form one image using AxioVision 4.6.3.0 software. Vascular lesion counts were analyzed using the SWIFT_MACTEL method, an adaptation of the method used to measure neovascularization (SWIFT_NV) (Stahl, A., et al. Angiogenesis 12, 297-301 (2009) in the oxygen induced retinopathy model. […]

retinas = assay: Oxygen consumption rate of ex vivo retinas (Seahorse XFe96); assay type: cell-based, mouse; conditions: WT retinal explants with palmitate, etomoxir 40 μM
Experimental: as §1

Glut1 [2] = assay: Retinal Glut1 expression after in vivo treatment (qRT-PCR / Western blot); parameters: species or system mouse; conditions: versus control
Source text: as §2, with “Pups weighing less than 5 grams or more than 7 grams at postnatal day (P)16 were excluded (Stahl, A., et al. Am J Pathol 177, 2715-2723 (2010)).” left out, “Mice pups of both genders were used.” left out
Retinal samples were obtained as described above. […] Densitometry was analyzed using ImageJ. Retinal Vegfa concentration was measured by ELISA (as per manual, MMV00, R&D Systems) and normalized by doing a Bradford to measure the total cell protein content of each samples.

Glut1 [3] = assay: Glut1 expression in photoreceptor (661W) cells; assay type: cell-based; conditions: 661W photoreceptors
Experimental: RNA samples from cell culture, whole retina or laser-captured neovessels and layers were treated with DNase I (Qiagen, Chatsworth, Calif.) to remove any contaminating genomic DNA. The DNase-treated RNA was then converted into cDNA using reverse transcriptase (Invitrogen). PCR primers for target genes and the control gene, cyclophilin A, were designed using Primer Bank and NCBI Primer Blast software. Quantitative analysis of gene expression was generated using an ABI Prism 7700 Sequence Detection System with the SYBR Green Master mix kit and gene expression was calculated relative to cyclophilin A using the ΔcT method.
Cone photoreceptor cells (al-Ubaidi, M. R., J Cell Biol 119, 1681-1687 (1992), and Tan, E., et al. Invest Ophthalmol Vis Sci 45, 764-768 (2004)) (661W; from Dr. Al-Ubaidi) were cultured as monolayers at 37° C., 5% CO2 in a humidified atmosphere in DMEM with FBS 10% supplemented with hydrocortisone (20 μg/500 mL, H-2270, Sigma), Progesterone (20 μg/500 mL, P-8783, Sigma), Putrescine (0.016 g/500 mL, P-7505, Sigma) and β-mercaptoethanol (20 μL/500 mL, M-6250, Sigma). […] Photoreceptors were then collected 8 hours post-treatment for Hif1α protein expression (see Western blot); while their medium was collected at 12 hours for Vegfa quantification by ELISA (as per manual, MMV00, R&D Systems). […]

WT and Vldlr−/− mice = assay: Retinal glucose uptake (3H-2-deoxyglucose tracer) in treated pups; assay type: in vivo, mouse; conditions: WT and Vldlr−/− retinas; GW9508 14 μM daily i.p. for 5 days (P7-P12)
Experimental: Positron emission tomography (PET) imaging studies were performed on WT, Vldlr^−/−/Ffar1^−/and Ffar1^−/− mice (P16; Focus 120 high-resolution, Siemens), followed by micro CAT imaging (MicroCAT II scanner, Siemens). Fluorine-18 fluorodeoxyglucose FDG) was administered by intraperitoneal injection (i.p.) to obtain nontoxic radioactivity levels (3.7 and 37 MBq; or 0.1 to 1.0 mCi). Actual administered activity was determined using a dose calibrator to measure activity in the syringe before and after the injection. Images were acquired 60 minutes after injection to ensure radiotracer uptake. Mice were fasted for 6 hours prior to imaging, kept in darkness and anesthetized by inhalation of isoflurane (2-4%) through a nose cone for the duration of the procedure. Animals were imaged in a head first, prone position, and placed on a heating pad to maintain appropriate body temperature. Upon completion of imaging, mice were euthanized and retinas were dissected for precise ^18F-FDG retinal activity, quantification by gamma counter, and corrected for decay. […] Retinas were collected and homogenized in a scintillation cocktail (Ecolite+, MP biomedicals) and betacounts measured using the LS6500 Multipurpose Scintillation Counter (Beckman).

Hif1α [4] = assay: Retinal Hif1α stabilization after in vivo treatment (Western blot); parameters: species or system mouse
Experimental: (§3) Retinal samples were obtained as described above. Retinal lysate (20 μg) from three different animals or endothelial cells lysate (10 μg) were loaded on an SDS-PAGE gel and electroblotted onto a PVDF membrane. After blocking, the membranes were incubated with antibodies against β-Actin (Sigma, A1978), Hif1α (Novus, NB100-134), and Glut1 (Novus, NB300-666 and Abcam, Ab652) overnight (1:1000 each). After washing, membranes were incubated with 1:10,000 horseradish peroxidase-conjugated anti-rabbit or anti-mouse secondary antibodies (Amersham, NA931V and NA934V) for one hour at room temperature. Densitometry was analyzed using ImageJ. Retinal Vegfa concentration was measured by ELISA (as per manual, MMV00, R&D Systems) and normalized by doing a Bradford to measure the total cell protein content of each samples.

Hif1α [5] = assay: Hif1α protein in photoreceptor (661W) cells (Western blot); assay type: cell-based; conditions: 661W photoreceptors, 8 hours post-treatment
Experimental: as §3
Cone photoreceptor cells (al-Ubaidi, M. R., J Cell Biol 119, 1681-1687 (1992), and Tan, E., et al. Invest Ophthalmol Vis Sci 45, 764-768 (2004)) (661W; from Dr. Al-Ubaidi) were cultured as monolayers at 37° C., 5% CO2 in a humidified atmosphere in DMEM with FBS 10% supplemented with hydrocortisone (20 μg/500 mL, H-2270, Sigma), Progesterone (20 μg/500 mL, P-8783, Sigma), Putrescine (0.016 g/500 mL, P-7505, Sigma) and β-mercaptoethanol (20 μL/500 mL, M-6250, Sigma). Equal number of 661W cells (0.3×106) were plated in 6-well dishes and cultured to 80% confluence. […]

photoreceptors (661W) [6] = assay: Glucose uptake of photoreceptor (661W) cells; assay type: cell-based; conditions: 661W photoreceptors
Experimental: Whole retinas and photoreceptors (661W) were incubated in assay media (DMEM 5030, 12 mM glucose, 10 mM HEPES) for 6 and 48 hours respectively. Media was collected, spun briefly (13 g) to remove cellular debris, and glucose and lactate levels measured using a Yellow Springs Instrument (YSI) 2950 were compared to control media that was not exposed to tissue or cells. To determine the conversion of glucose to lactate (the glycolytic rate), lactate production was divided by glucose uptake.

pancreatic β-cell = conditions: by reducing β-cell overload; cited from earlier work

## CCCCCCCN(CCc1ccc(SC(C)(C)C(=O)O)cc1)C(=O)Nc1ccc(F)cc1F [GW9578]
Photoreceptors (661W) [1]; 661W photoreceptors, GW9578 100 nM, 48 hours
  extracellular acidification rate (ECAR), reflecting lactate production from glycolysis: without significantly affecting; also recorded: not detectably affected
Photoreceptors (661W) [1]; 661W photoreceptors, palmitate, GW9578 100 nM, 48 hours
  mitochondrial respiration by FA β-oxidation (OCR): induced; also recorded: further increased

## Cc1cccc(Nc2cc(Cl)nc(SCC(=O)O)n2)c1C [WY16463]
Vldlr−/− mice
  number of RAP-like pathologic vascular lesions: reduced

## CCOC(=O)[C@@]1(CCCCCCOc2ccc(Cl)cc2)CO1 [Etomoxir]
retinas
  mitochondrial respiration (OCR) with FA oxidation inhibitor: abrogated
Photoreceptors (661W) [1]; 661W photoreceptors with palmitate, etomoxir 40 μM
  effect on the increase in respiration (OCR): abrogated

## Cc1cc(OCCCS(C)(=O)=O)cc(C)c1-c1cccc(COc2ccc3c(c2)OC[C@H]3CC(=O)O)c1 [TAK-875]
Vldlr−/− mice
  number of RAP-like pathologic vascular lesions: significantly increased and more
Glut1 [2]; Vldlr−/− retinas only
  Glut1 expression in retina: increased Glut1 suppression

## COc1cccc(-c2cc(=O)c3ccccc3o2)c1N [PD98059]
Glut1 [3]; PD98059, 20 μM, SP600125, Ffar1 siRNA
  effect on FFA1-mediated Glut1 suppression by GW9508: prevented

## O=C(O)CCc1ccc(NCc2cccc(Oc3ccccc3)c2)cc1 [GW9508]
Vldlr−/− mice
  number of RAP-like pathologic vascular lesions: more than doubled
WT and Vldlr−/− mice
  retinal glucose uptake (3H-2-DG tracer): suppressed; also recorded: reduction
Glut1 [2]; WT and Vldlr−/− retinas
  Glut1 expression in retina: reduces; also recorded: suppressed
Hif1α [4]; Vldlr−/− retinas
  Hif1α stabilization in retina: stabilized
Hif1α [4]; WT retinas
  Hif1α stabilization in retina: stabilized
Hif1α [5]
  Hif1α stabilization: stabilized; also recorded: stabilization
Glut1 [3]
  Glut1 expression: suppression
Photoreceptors (661W) [6]
  glucose uptake: decreased

## CCCCc1ccc(NS(=O)(=O)c2ccc(F)cc2)cc1 [DC260126, N-(4-Butylphenyl)-4-fluoro-benzenesulfonamide]
Pancreatic β-cell
  pancreatic β-cell dysfunction: protect
